Assay results published in BindingDB's records for patent US20260042753 (Merck Patent, 2026).
pIC50: −log10 of the molar value.

These compounds were tested on Mast/stem cell growth factor receptor Kit [V654A] (assay: c-Kit(V654A) Assay).
Protocol: c-Kit(V654A) (N-terminal GST-tagged, recombinant human c-Kit, amino acids 544-end containing the V654A mutation) is incubated with 8 mM MOPS pH 7.0, 0.2 mM EDTA, 250 μM GGMEDIYEFMGGKKK, 10 mM MgAcetate and [gamma-33P-ATP](specific activity approx. 500 cpm/pmol, concentration 200 μM). The reaction is initiated by the addition of the MgATP mix. After incubation for 40 minutes at room temperature, the reaction is stopped by the addition of 3% phosphoric acid solution. 10 μL of the reaction is then spotted onto a P30 filtermat and washed three times for 5 minutes in 75 mM phosphoric acid and once in methanol prior to drying and scintillation counting.
Work on COCCOc1cc2[nH]nc(-c3cc(-c4ccc(C(=O)N5CC[C@H]6COC[C@H]6C5)cc4)no3)c2cc1F (relative stereo) [US20260042753, Compound A215] yielded a pIC50 of 9.12.
With COCCOc1cc2[nH]nc(-c3cc(-c4ccc(C(=O)N5CC[C@@H]6CNC(=O)[C@@H]65)cc4)no3)c2cc1F (relative stereo) [US20260042753, Compound A89] the pIC50 was 9.24.
Compound COCCNC(=O)c1ccc(-c2cc(-c3n[nH]c4cc(C(=O)NCCOC)ccc34)on2)cc1 [US20260042753, Compound A23] has a pIC50 of 8.00.
Compound COCCOc1cc2[nH]nc(-c3cc(-c4ccc([SH2+]([O-])C=N)cc4)no3)c2cc1F [US20260042753, Compound A226] has a pIC50 of 8.70.
COCCOc1cc2[nH]nc(-c3cc(-c4ccc(C(=O)N5C[C@@H]6CC(=O)N[C@@H]6C5)cc4)no3)c2cc1F (relative stereo) [US20260042753, Compound A203] showed a pIC50 of 8.85.
COCCOc1cc2[nH]nc(-c3cc(-c4ccc(C(=O)N5C[C@H]6CCOC[C@H]6C5)cc4)no3)c2cc1F (relative stereo) [US20260042753, Compound A214] gave a pIC50 of 9.36.
With COCCOc1cc2[nH]nc(-c3cc(-c4ccc(N5CC[C@H]6[C@H]5CCN6C)cc4)no3)c2cc1F (relative stereo) [US20260042753, Compound A126] the pIC50 was 8.77.
